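Method: 48-hour compound exposure of cells in 96-well plates, five concentrations, linear interpolation of endpoints. GI50 = concentration required for 50% inhibition of growth. TGI: concentration producing complete growth inhibition.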
What was measured:
Assay in all cases: inhibition of tumour cell growth, NCI panel, 48 h
786-0 renal = system: 786-0 renal
A498 renal = system: A498 renal
A549 NSCLC = system: A549 NSCLC
ACHN renal = system: ACHN renal
BT-549 breast = system: BT-549 breast
CAKI-1 renal = system: CAKI-1 renal
CCRF-CEM leukemia = system: CCRF-CEM leukemia
COLO 205 colon = system: COLO 205 colon
DU-145 prostate = system: DU-145 prostate
EKVX NSCLC = system: EKVX NSCLC
HCC-2998 colon = system: HCC-2998 colon
HCT-116 colon = system: HCT-116 colon
HCT-15 colon = system: HCT-15 colon
HL-60(TB) leukemia = system: HL-60(TB) leukemia
HOP-62 NSCLC = system: HOP-62 NSCLC
HOP-92 NSCLC = system: HOP-92 NSCLC
HT29 colon = system: HT29 colon
IGROV1 ovarian = system: IGROV1 ovarian
K-562 leukemia = system: K-562 leukemia
KM12 colon = system: KM12 colon
LOX IMVI melanoma = system: LOX IMVI melanoma
M14 melanoma = system: M14 melanoma
MALME-3M melanoma = system: MALME-3M melanoma
MCF7 breast = system: MCF7 breast
MDA-MB-231 breast = system: MDA-MB-231 breast
MDA-MB-435 = system: MDA-MB-435
MOLT-4 leukemia = system: MOLT-4 leukemia
NCI-H226 lung = system: NCI-H226 lung
NCI-H23 lung = system: NCI-H23 lung
NCI-H460 lung = system: NCI-H460 lung
NCI-H522 lung = system: NCI-H522 lung
OVCAR-3 ovarian = system: OVCAR-3 ovarian
OVCAR-4 ovarian = system: OVCAR-4 ovarian
OVCAR-5 ovarian = system: OVCAR-5 ovarian
OVCAR-8 ovarian = system: OVCAR-8 ovarian
PC-3 prostate = system: PC-3 prostate
RPMI-8226 leukemia = system: RPMI-8226 leukemia
RXF 393 renal = system: RXF 393 renal
SF-268 CNS = system: SF-268 CNS
SF-295 CNS = system: SF-295 CNS
SF-539 CNS = system: SF-539 CNS
SK-MEL-2 melanoma = system: SK-MEL-2 melanoma
SK-MEL-28 melanoma = system: SK-MEL-28 melanoma
SK-MEL-5 melanoma = system: SK-MEL-5 melanoma
SK-OV-3 ovarian = system: SK-OV-3 ovarian
SN12C renal = system: SN12C renal
SNB-19 CNS = system: SNB-19 CNS
SNB-75 CNS = system: SNB-75 CNS
SR leukemia = system: SR leukemia
SW-620 colon = system: SW-620 colon
T-47D breast = system: T-47D breast
TK-10 renal = system: TK-10 renal
U251 CNS = system: U251 CNS
UACC-257 melanoma = system: UACC-257 melanoma
UACC-62 melanoma = system: UACC-62 melanoma
UO-31 renal = system: UO-31 renal

## O=C(N/N=C/c1ccc(Cl)cc1)c1[nH]c2ccc(Cl)cc2c1-c1ccccc1
786-0 renal
  GI50: 294 nM
  TGI: > 34700 nM
A498 renal
  GI50: 15400 nM
  TGI: > 100000 nM
A549 NSCLC
  GI50: 348 nM
  TGI: 29300 nM
ACHN renal
  GI50: 199 nM
  TGI: > 45300 nM
BT-549 breast
  GI50: 146 nM
  TGI: 3580 nM
CAKI-1 renal
  GI50: 185 nM
  TGI: 645 nM
CCRF-CEM leukemia
  GI50: 98.6 nM
COLO 205 colon
  GI50: 202 nM
  TGI: 406 nM
DU-145 prostate
  GI50: 104 nM
  TGI: 367 nM
EKVX NSCLC
  GI50: 317 nM
  TGI: > 100000 nM
HCC-2998 colon
  GI50: 326 nM
  TGI: 15500 nM
HCT-116 colon
  GI50: 114 nM
  TGI: 1560 nM
HCT-15 colon
  GI50: 255 nM
HL-60(TB) leukemia
  GI50: 107 nM
  TGI: 393 nM
HOP-62 NSCLC
  GI50: 494 nM
  TGI: 36400 nM
HOP-92 NSCLC
  GI50: 424 nM
  TGI: 41500 nM
HT29 colon
  GI50: 122 nM
  TGI: > 36000 nM
IGROV1 ovarian
  GI50: 52.3 nM
  TGI: 12100 nM
K-562 leukemia
  GI50: 206 nM
  TGI: 12700 nM
KM12 colon
  GI50: 181 nM
  TGI: 568 nM
LOX IMVI melanoma
  GI50: 120 nM
  TGI: > 37400 nM
M14 melanoma
  GI50: 93.7 nM
  TGI: 18500 nM
MALME-3M melanoma
  GI50: 17800 nM
  TGI: 76400 nM
MCF7 breast
  GI50: 115 nM
  TGI: 21700 nM
MDA-MB-231 breast
  GI50: 201 nM
  TGI: 633 nM
MDA-MB-435
  GI50: 245 nM
  TGI: 720 nM
MOLT-4 leukemia
  GI50: 108 nM
  TGI: > 32000 nM
NCI-H226 lung
  GI50: 290 nM
  TGI: > 44500 nM
NCI-H23 lung
  GI50: 328 nM
  TGI: 35500 nM
NCI-H460 lung
  GI50: 328 nM
  TGI: 3990 nM
NCI-H522 lung
  GI50: 45.8 nM
  TGI: 167 nM
OVCAR-3 ovarian
  GI50: 26.5 nM
  TGI: 58.4 nM
OVCAR-4 ovarian
  GI50: 183 nM
  TGI: > 79300 nM
OVCAR-5 ovarian
  GI50: 573 nM
  TGI: > 100000 nM
OVCAR-8 ovarian
  GI50: 132 nM
  TGI: 32600 nM
PC-3 prostate
  GI50: 200 nM
  TGI: 44800 nM
RPMI-8226 leukemia
  GI50: 19.3 nM
  TGI: 55.6 nM
RXF 393 renal
  GI50: 123 nM
  TGI: 1510 nM
SF-268 CNS
  GI50: 161 nM
  TGI: > 42300 nM
SF-295 CNS
  GI50: 81.5 nM
  TGI: 2580 nM
SF-539 CNS
  GI50: 94.7 nM
  TGI: 267 nM
SK-MEL-2 melanoma
  GI50: 332 nM
  TGI: 35500 nM
SK-MEL-28 melanoma
  GI50: 2770 nM
  TGI: > 68100 nM
SK-MEL-5 melanoma
  GI50: 214 nM
  TGI: 469 nM
SK-OV-3 ovarian
  GI50: 387 nM
SN12C renal
  GI50: 206 nM
  TGI: > 70400 nM
SNB-19 CNS
  GI50: 504 nM
  TGI: > 56100 nM
SNB-75 CNS
  GI50: 1020 nM
  TGI: > 51200 nM
SR leukemia
  GI50: 133 nM
  TGI: 2090 nM
SW-620 colon
  GI50: 159 nM
  TGI: > 100000 nM
T-47D breast
  GI50: 38200 nM
  TGI: > 100000 nM
TK-10 renal
  GI50: 3300 nM
  TGI: 59700 nM
U251 CNS
  GI50: 255 nM
  TGI: 4680 nM
UACC-257 melanoma
  GI50: 7420 nM
  TGI: > 100000 nM
UACC-62 melanoma
  GI50: 191 nM
  TGI: > 52500 nM
UO-31 renal
  GI50: 268 nM
  TGI: > 65000 nM

Source: PubChem BioAssay (NCI)
